Where two headings read alike, the source gives them in different places. Blank lines part the entries; values can stand above or below the molecule they belong to. *1 amine or outer side, *2 acyl side, *3 side chain or, on linkers, in order; H or OH if unused. Where a SMILES comes first, the peptide text is derived from it. [ ]: non-standard residue; d: D form. X1 = O=C([C@@H](N[*:1])[C@@H]1CC(Cl)=NO1)[*:2]; DON = [N-]=[N+]=CC(=O)CC[C@H](N)C(=O)O
How the values were obtained:
[1] = target: T1, recombinant human tissue transglutaminase (Homo sapiens, UniProt P21980); test: Inhibition of tissue transglutaminase (residual tTG activity, glutamate dehydrogenase coupled assay); format: biochemical; set-up: made in house
T1 sequence (P21980 1-687): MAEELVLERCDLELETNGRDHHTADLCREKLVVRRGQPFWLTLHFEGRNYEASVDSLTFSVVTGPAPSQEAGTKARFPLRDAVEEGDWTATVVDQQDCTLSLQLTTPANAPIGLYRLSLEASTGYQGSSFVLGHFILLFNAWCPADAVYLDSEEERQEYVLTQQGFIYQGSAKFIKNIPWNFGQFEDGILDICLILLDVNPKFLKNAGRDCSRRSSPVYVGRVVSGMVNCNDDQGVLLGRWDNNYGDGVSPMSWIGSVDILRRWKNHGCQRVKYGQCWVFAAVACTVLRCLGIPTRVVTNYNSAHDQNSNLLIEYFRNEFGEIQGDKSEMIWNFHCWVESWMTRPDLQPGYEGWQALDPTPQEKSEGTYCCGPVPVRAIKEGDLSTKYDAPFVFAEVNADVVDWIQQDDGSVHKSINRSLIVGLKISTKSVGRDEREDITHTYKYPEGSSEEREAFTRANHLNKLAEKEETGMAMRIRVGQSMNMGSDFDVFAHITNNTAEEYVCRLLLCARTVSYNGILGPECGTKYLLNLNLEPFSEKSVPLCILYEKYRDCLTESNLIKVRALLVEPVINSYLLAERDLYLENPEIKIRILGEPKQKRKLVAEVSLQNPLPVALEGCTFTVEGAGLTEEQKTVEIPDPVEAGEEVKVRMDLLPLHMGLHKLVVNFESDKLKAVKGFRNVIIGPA

[2] = target: T1, recombinant human tissue transglutaminase; test: Catalysis of reactive glutamine substrates by tissue transglutaminase; settings: read-out: KM (reactive motif Gln); X = Gln, substrate
[3] = substrate: NCCc1c[nH]cn1; test: purified protein, by the assay type; settings: other: nucleophilic amine co-substrate
[4] = substrate: CC(=O)N1CCC[C@H]1C(=O)N[C@@H](CCC(N)=O)C(=O)N1CCC[C@H]1C(=O)N[C@@H](CCC(N)=O)C(=O)N[C@@H](CC(C)C)C(=O)N1CCC[C@H]1C(=O)N[C@@H](Cc1ccccc1)C(N)=O; test: purified protein, by the assay type; settings: other: X = Gln, substrate; pH 7.1; 30.0 °C
[5] = substrate: CC(C)C[C@H](NC(=O)[C@H](CCC(N)=O)NC(=O)[C@@H]1CCCN1C(=O)[C@H](CCC(N)=O)NC(=O)[C@@H]1CCCN1)C(=O)N1CCC[C@H]1C(=O)N[C@@H](Cc1ccc(O)cc1)C(=O)O; test: purified protein, by the assay type; settings: other: X = Gln, substrate; pH 7.1; 30.0 °C
[6] = Table 3, sulfonamides and sulfonyl hydrazides, competitive inhibition constant, read-out: inhibition constant
[7] = X = acivicin, 200 mM MOPS pH 7.1, 30° C.

Ki [1, 6]: 2.2 mM
Molecule: CCOC(=O)[C@H](CCS(=O)(=O)NN)NC(=O)OCc1ccccc1 [(S)-2-Benzyloxycarbonylamino-4-hydrazinosulfonyl-butyric acid ethyl ester]

Ki [1, 6]: 0.13 mM
Molecule: CCOC(=O)[C@H](CCS(=O)(=O)NNc1ccccc1)NC(=O)OCc1ccccc1 [(S)-2-Benzyloxycarbonylamino-4-phenylhydrazinosulfonyl-butyric acid ethyl ester]

Ki [1, 6]: 4.4 mM
Molecule: CCOC(=O)[C@H](CCS(N)(=O)=O)NC(=O)OCc1ccccc1 [(S)-2-Benzyloxycarbonylamino-4-sulfamoyl-butyric acid ethyl ester]

kinh (reactive motif DON) ([1]; X = 6-diazo-5-oxo-norleucine): 0.2 min⁻¹
kinh/KI (reactive motif DON) ([1]; X = 6-diazo-5-oxo-norleucine): 2.9 × 10^6 min^−1M^−1
Molecule: CC(=O)N1CCC[C@H]1C(=O)N[C@@H](CCC(N)=O)C(=O)N1CCC[C@H]1C(=O)N[C@@H](CCC(=O)C=[N+]=[N-])C(=O)N[C@@H](CC(C)C)C(=O)N1CCC[C@H]1C(=O)N[C@@H](Cc1ccccc1)C(N)=O [Ac—PQP—X—LPF—NH2, X=DON, Ac-Pr-Gl-Pr-DonLeu-Pr-PheNH2] (Ac-PQP[DON]LPF-NH2)

kinh (reactive motif DON) ([1]; X = 6-diazo-5-oxo-norleucine): 0.12 min⁻¹
kinh/KI (reactive motif DON) ([1]; X = 6-diazo-5-oxo-norleucine): 890 min^−1M^−1
Ki ([1]; X = 6-diazo-5-oxo-norleucine, read-out: KI (reactive motif DON)): 0.135 mM
Molecule: COC(=O)C(CCC(=O)C=[N+]=[N-])NC(=O)OCc1ccccc1 (centres unmarked) [Cbz-X—OMe, X=DON]

Km [2]: > 30000 µM
Molecule: COC(=O)[C@H](CCC(N)=O)NC(=O)OCc1ccccc1 [Cbz-X—OMe, X=Gln]

kinh/KI (reactive motif Aci) ([1]; X = acivicin): 0.17 min^−1M^−1
kinh (reactive motif Aci) [1, 7]: 0.015 min⁻¹
Ki ([1]; X = acivicin, 200 mM MOPS pH 7.1, 30° C., read-out: KI (reactive motif Aci)): 87 mM
Molecule: N[C@H](C(=O)O)[C@@H]1CC(Cl)=NO1 [H—X—OH, X=Aci, acivicin, reference compound]

Molecule: [N-]=[N+]=CC(=O)CC[C@H](N)C(=O)O [H—X—OH, X=DON, 6-diazo-5-oxo-norleucine, reference compound]
kinh (reactive motif DON) ([1]; X = 6-diazo-5-oxo-norleucine): 0.025 min⁻¹
kinh/KI (reactive motif DON) ([1]; X = 6-diazo-5-oxo-norleucine): 0.2 min^−1M^−1

kinh/KI (reactive motif Aci) ([1]; X = acivicin): 18 min^−1M^−1
kinh (reactive motif Aci) [1, 7]: 0.014 min⁻¹
Molecule: CC(C)C[C@H](NC(=O)[C@@H](NC(=O)[C@@H]1CCCN1C(=O)[C@H](CCC(N)=O)NC(=O)[C@@H]1CCCN1)[C@@H]1CC(Cl)=NO1)C(=O)N1CCC[C@H]1C(=O)N[C@@H](Cc1ccc(O)cc1)C(=O)O [PQP—X—LPY, X=Aci, Pro-Gln-Pro-Aci-Leu-Pro-Tyr] (H-PQP[X1]LPY-OH; C-terminus assumed)

Ki ([1]; Table 2, Sab derivatives, reversible competitive inhibition, read-out: KI): 8 mM
Molecule: NS(=O)(=O)CCC(NC(=O)OCc1ccccc1)C(=O)NCC(=O)O (centres unmarked) [Z-Sab-Gly]

B1: human tTGase (Homo sapiens) (protein)
chain: T1 sequence (P21980 1-687)
Km [3]: 40 µM
kcat [3]: 0.333 s⁻¹

B2: recombinant human tissue transglutaminase (Homo sapiens) (protein)
chain: T1 sequence (P21980 1-687)
Km [4]: 400 µM
kcat [4]: 0.667 s⁻¹
kcat/Km [4]: 1620 M⁻¹ s⁻¹
Km [5]: 300 µM
